Type in all cases: functional, organism-based
Test [1] concerns Human immunodeficiency virus 1. Briefly: Antiviral activity against HIV1.
For test [2], the system named is Human alphaherpesvirus 2. Briefly: Antiviral activity against HSV2.
Test [3] concerns Human alphaherpesvirus 1. Briefly: Antiviral activity against HSV1.

Data on 8 compounds can be found in ChEMBL document CHEMBL1151179, “Isolation of salicin derivatives from Homalium cochinchinensis and their antiviral activities” (J Nat Prod, 2004).

Take `Cc1cn([C@H]2C[C@H](N=[N+]=[N-])[C@@H](CO)O2)c(=O)[nH]c1=O` [ZIDOVUDINE]: a half-maximal response in test [1] (EC50) required 0.02 µM.
Consider `O=C(O[C@H]1[C@H](Oc2ccccc2COC(=O)[C@]2(O)C=CCC[C@@H]2O)O[C@H](CO)[C@@H](O)[C@@H]1O)c1ccccc1` [TREMULACINOL], for which the EC50 in test [2] and in test [3] was greater than 188 µM each time.
`O=C(O[C@H]1[C@H](Oc2ccccc2COC(=O)C2(O)C=CCCC2=O)O[C@H](CO)[C@@H](O)[C@@H]1O)c1ccccc1` (stereo partly specified) [TREMULACIN]: the EC50 (in general, the midpoint of the concentration-response curve) in test [2] was 86 µM; in test [1], 52 µM; in test [3] it was 87 µM.
On to `Nc1nc2c(ncn2COCCO)c(=O)[nH]1` [ACYCLOVIR], for which the figures for the concentration giving a half-maximal response (EC50) in test [2] and in test [3] were 1 µM and 1.1 µM, respectively.
In the case of `O=C(O[C@H]1[C@H](Oc2c(O)cccc2COC(=O)C2(O)C=CCCC2=O)O[C@H](CO)[C@@H](O)[C@@H]1O)c1ccccc1` (stereo partly specified) [COCHINCHISIDE B], the EC50 was 76 µM in test [2], greater than 18 µM in test [1] and 76 µM in test [3].
As for `O=C1OC2=C[C@@H](O)CCC2=C1C(O)c1ccccc1` (stereo partly specified) [COCHINOLIDE], the 50% effective concentration (EC50) in test [2] was 86 µM; in test [3], 31 µM.
The compound `O=c1[nH]cnc2c1ncn2[C@H]1CC[C@@H](CO)O1` [DIDANOSINE] registered an EC50 in test [1] of 2.1 µM.
Take `O=C(O[C@H]1[C@H](Oc2ccccc2CO)O[C@H](CO)[C@@H](O)[C@@H]1O)c1ccccc1` [TREMULDIN]: the EC50 in test [2] and in test [3] was greater than 256 µM each time.
